Data published in patent US8173385B2, “Method for stabilization of peptides in a biological sample” (Kyowa Medex Co., Ltd., priority 2005, dated 2012).
Like-named read-outs stand apart in the source and are kept apart here. Each block holds one compound with its values, some of them ahead of it.

How the values were obtained:
[1] = test system: substance P in human plasma
Description: (§1) To 50 μL portions of human plasma prepared in the same manner as in Example 1 was added a 400 mg/mL aqueous solution of glucose (special grade; Kanto Chemical Co., Inc.) prepared with purified water (100 μL), followed by mixing. […] The concentrations of substance P in the thawed portions of sample N were measured in the same manner as in Example 1 to calculate the residual rates, which are the index for the stability of substance P in plasma.
(§2) To 50 μL portions of human plasma prepared in the same manner as in Example 1 was added a 200 pg/mL aqueous solution of substance P (50 μL) to prepare six portions of sample.
(§3) After the preparation, the samples were frozen at −80° C. and then thawed at room temperature 0 day, 3 days and 13 days after the freezing. The concentrations of substance P in the thawed samples were measured in the same manner as in Example 1 using Substance P EIA Kit (Cayman) to calculate the residual rates, which are the index for the stability of substance P in plasma.

[2] = test system: neutral endopeptidase (NEP); assay: Effect of addition of a saccharide on degradation of substance P by neutral endopeptidase (NEP); assay type: biochemical; details: for Degradation of substance P by NEP: result in words
Description: Similarly, samples each comprising 150 μL of human plasma, 150 μL of a 200 pg/mL aqueous solution of substance P, 300 μL of a 400 mg/mL aqueous solution of glucose and 50 μL of an enzyme solution (respective NEP concentrations; 0 U/mL, 0.1 U/mL, 1.0 U/mL and 10.0 U/mL) were prepared.
Further, samples each comprising 150 μL of human plasma, 150 μL of a 200 pg/mL aqueous solution of substance P, 300 μL of a 10 mmol/L aqueous solution of phosphoramidon and 50 μL of an enzyme solution (respective NEP concentrations; 0 U/mL, 0.1 U/mL, 1.0 U/mL and 10.0 U/mL) were prepared.

[3] = test system: substance P in human plasma; assay: Stabilization of substance P in plasma by addition of a saccharide when frozen at −80° C.; details: Example 6: same additive solutions
Description: as §1, §2, §3

[4] = test system: substance P in human plasma; details: 4° C. 18 hours
Description: To 50 μL portions of the human plasma were respectively added a 200 mg/mL aqueous solution of xylose, a 200 mg/mL aqueous solution of glucose, a 200 mg/mL aqueous solution of mannose and a 200 mg/mL aqueous solution of galactose (100 μL each), followed by mixing.
Measurement of substance P in samples A to D and the control sample was carried out in duplicate in the following manner, using Substance P EIA Kit (Cayman) according to the manual attached to the kit.
The above kit is a kit for enzyme immunoassay by the competitive method using, as a competitive substance, substance P bound to acetylcholine esterase (substance P AchE tracer). The measurement with this kit is carried out by allowing substance P in a sample and the competitive substance to competitively react with anti-substance P antibody on a solid phase and reacting acetylcholine esterase in the competitive substance bound to the anti-substance P antibody on a solid phase with Ellman's reagent to develop color, followed by the measurement of the absorbance. Then, the concentration of substance P in the sample can be determined based on a previously prepared calibration curve. […]

[5] = Stability of substance P in aqueous solution without plasma (Substance P EIA Kit); assay type: physicochemical; details: for Concentration of substance P measured in the substance P solution: 200 pg/mL aqueous solution
Description: When the 200 pg/mL aqueous solution of substance P was, without being mixed with the human plasma, subjected to measurement of substance P under the present measurement conditions including incubation at 4° C. for 18 hours, the obtained value was 226.16 pg/mL. […] On the other hand, as shown in the experiment on the control sample, when the sample having the initial substance P concentration of 116.93 pg/mL was subjected to measurement under the present measurement conditions including incubation at 4° C. for 18 hours, the obtained average substance P concentration was 60.57 pg/mL.
The concentrations of substance P in the human plasma used for the preparation of the samples subjected to the incubation for 16 hours, 24 hours and 48 hours were determined to be 15.02 pg/mL, 4.95 pg/mL and 5.71 pg/mL, respectively. The concentrations of substance P in the substance P solution used for the preparation of the samples subjected to the incubation for 16 hours, 24 hours and 48 hours were determined to be 211.1 pg/mL, 208.4 pg/mL and 197.8 pg/mL, respectively. From these measurement values, the theoretical values of the concentrations of substance P in the samples were calculated in the same manner as in Example 1, and the residual rates were calculated from the theoretical values and the measurement values.

Residual rate, Day 3 [1]: 26.4% | Residual rate, Day 13 [1]: 32.6%
Compound: O=C([O-])CN(CCN(CC(=O)[O-])CC(=O)O)CC(=O)O.[Na+].[Na+] [EDTA•2Na, ethylenediaminetetraacetic acid.disodium]

Residual rate, Day 3 ([1]; human, 3 days): 29.0% | Residual rate, Day 13 ([1]; human, 13 days): 25.6% | Degradation of substance P by NEP [2]: inhibited
Compound: CC(C)C[C@H](NP(=O)(O)O[C@@H]1O[C@@H](C)[C@H](O)[C@@H](O)[C@H]1O)C(=O)N[C@@H](Cc1c[nH]c2ccccc12)C(=O)O [Phosphoramidon, phosphoramidon]

Compound: magnesium gluconate
Residual rate, Day 3 ([3]; thawed 3 days after the freezing): 42.6% | Residual rate, Day 13 ([3]; thawed 13 days after the freezing): 40.1%

Compound: substance P
Average substance P concentration in plasma without saccharide ([4]; control sample, initial substance P concentration 116.93 pg/mL): 60.57 pg/mL | Stability of substance P in the presence of plasma ([4]; no saccharide, result in words): unstable | Concentration of substance P measured in the substance P solution ([5]; incubation 16 hours at 4° C.): 0.2111 ng/mL | Concentration of substance P measured in the substance P solution ([5]; incubation 24 hours at 4° C.): 0.2084 ng/mL | Concentration of substance P measured in the substance P solution ([5]; incubation 48 hours at 4° C.): 0.1978 ng/mL | Stability of substance P in the aqueous solution ([5]; 4° C. 18 hours, result in words): stable | Concentration of substance P measured in the 200 pg/mL aqueous solution of substance P ([5]; without human plasma, incubation at 4° C. for 18 hours): 0.22616 ng/mL | Residual rate of substance P, NEP concentration 0 U/mL ([2]; human plasma + substance P ± 400 mg/mL glucose or 10 mmol/L phosphoramidon solution, enzyme solution NEP 0 U/mL): 100.0% | Residual rate of substance P, NEP concentration 0.1 U/mL ([2]; human plasma + substance P ± 400 mg/mL glucose or 10 mmol/L phosphoramidon solution, enzyme solution NEP 0.1 U/mL): 102.2% | Residual rate of substance P, NEP concentration 1.0 U/mL ([2]; human plasma + substance P ± 400 mg/mL glucose or 10 mmol/L phosphoramidon solution, enzyme solution NEP 1.0 U/mL): 93.3% | Residual rate of substance P, NEP concentration 10.0 U/mL ([2]; human plasma + substance P ± 400 mg/mL glucose or 10 mmol/L phosphoramidon solution, enzyme solution NEP 10.0 U/mL): 84.0% | Degradation of substance P by NEP [2]: degraded by NEP
